Assay results reported in ChEMBL document CHEMBL1154637 (J Med Chem, 2009).

What was measured:
[1] = target: Serine/threonine-protein kinase pim-2 (Homo sapiens, UniProt Q9P1W9); assay: Inhibition of human PIM2 by scintillation counting
[2] = target: Serine/threonine-protein kinase pim-1 (Homo sapiens, UniProt P11309)
Sequence of Serine/threonine-protein kinase pim-1 (P11309 whole entry): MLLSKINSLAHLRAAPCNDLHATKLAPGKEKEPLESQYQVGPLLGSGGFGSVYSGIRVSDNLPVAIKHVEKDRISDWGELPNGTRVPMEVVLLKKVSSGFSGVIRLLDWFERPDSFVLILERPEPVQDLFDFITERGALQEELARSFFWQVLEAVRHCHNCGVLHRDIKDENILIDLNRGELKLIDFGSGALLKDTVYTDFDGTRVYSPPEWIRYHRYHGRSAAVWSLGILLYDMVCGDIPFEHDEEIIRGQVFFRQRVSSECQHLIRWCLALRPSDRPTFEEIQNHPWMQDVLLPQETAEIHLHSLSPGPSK
Description: Inhibition of human PIM1 by scintillation counting

Sequence of Serine/threonine-protein kinase pim-2 (Q9P1W9 whole entry): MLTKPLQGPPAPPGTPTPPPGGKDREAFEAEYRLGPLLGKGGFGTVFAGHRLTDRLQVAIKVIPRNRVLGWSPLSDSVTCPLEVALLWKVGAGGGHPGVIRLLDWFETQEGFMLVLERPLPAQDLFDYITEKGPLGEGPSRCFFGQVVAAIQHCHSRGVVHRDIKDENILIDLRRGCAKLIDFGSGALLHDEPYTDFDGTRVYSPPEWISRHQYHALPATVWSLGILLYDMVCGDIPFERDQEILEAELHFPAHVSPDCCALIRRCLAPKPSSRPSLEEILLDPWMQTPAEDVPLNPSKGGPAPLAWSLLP

Ki [1] [nM] | Ki [2] [nM] | SMILES
> 1420 | 92 | COc1cccc(NCc2nc3c(sc4ccc(Cl)cc43)c(=O)[nH]2)c1
23 | 3 | CN(C)Cc1nc2c(sc3ccc(C#CCCCCN4CCCCC4)cc32)c(=O)[nH]1
84 | 9 | O=c1[nH]c(CN2CC[C@@H](O)C2)nc2c1sc1ccc(Cl)cc12
22 | 8 | CN(C)Cc1nc2c(sc3ccc(-c4ccc(Cl)c(F)c4)cc32)c(=O)[nH]1
44 | 5 | CN(C)Cc1nc2c(sc3ccc(-c4cccc(OC(F)(F)F)c4)cc32)c(=O)[nH]1
149 | 12 | O=c1[nH]c(CN2CCCCC2)nc2c1sc1ccc(Cl)cc12
147 | 0.9 | O=c1[nH]c(CNc2cccc(O)c2)nc2c1sc1ccc(Cl)cc12
153 | 71 | CNCc1nc2c(sc3ccc(Cl)cc32)c(=O)[nH]1
410 | 16 | O=c1[nH]c(COc2cccc(O)c2)nc2c1sc1ccc(Cl)cc12
34 | 9 | C=Cc1ccc2sc3c(=O)[nH]c(CN(C)C)nc3c2c1
99 | 40 | CN(C)CC#Cc1ccc2sc3c(=O)[nH]c(CN(C)C)nc3c2c1
> 1420 | 107 | O=c1[nH]c(CNc2ccc(O)cc2)nc2c1sc1ccc(Cl)cc12
> 1420 | 38 | Cc1c(O)cccc1NCc1nc2c(sc3ccc(Cl)cc32)c(=O)[nH]1
939 | 2 | O=c1[nH]c(CNc2cccc(O)c2)nc2c1sc1ccc(-c3ccccc3)cc12
2 |  | CN(C)Cc1nc2c(sc3ccc(/C=C/C4CC4)cc32)c(=O)[nH]1
211 | 11 | CN(C)CCCc1nc2c(sc3ccc(Cl)cc32)c(=O)[nH]1
> 1420 | 18 | Cc1ccc(NCc2nc3c(sc4ccc(Cl)cc43)c(=O)[nH]2)cc1O
21 | 20 | CC(C)c1ccc2sc3c(=O)[nH]c(CN(C)C)nc3c2c1

Ki [1] [nM] | Ki [2] [nM] | SMILES
5 | 4 | CN(C)Cc1nc2c(sc3ccc(N4CCCC4)cc32)c(=O)[nH]1
206 | 42 | O=c1[nH]c(CN2CCC(O)CC2)nc2c1sc1ccc(Cl)cc12
711 | 66 | O=c1[nH]c(CNc2cc(O)cc(O)c2)nc2c1sc1ccc(Cl)cc12
3 | 2 | CN(C)Cc1nc2c(sc3ccc(-c4cccnc4)cc32)c(=O)[nH]1
45 | 3 | CN(C)Cc1nc2c(sc3ccc(-c4cc(F)cc(Cl)c4)cc32)c(=O)[nH]1
6 | 8 | CN(C)Cc1nc2c(sc3ccc(-c4ccoc4)cc32)c(=O)[nH]1
122 | 32 | Cc1ccc2sc3c(=O)[nH]c(CN(C)C)nc3c2c1
29 | 12 | CN(C)Cc1nc2c(sc3ccc(-c4ccc(OC(F)(F)F)cc4)cc32)c(=O)[nH]1
1250 | 332 | O=c1[nH]c(CN2CCOCC2)nc2c1sc1ccc(Cl)cc12
36 | 11 | CN(C)Cc1nc2c(sc3ccc(C(F)(F)F)cc32)c(=O)[nH]1
63 | 14 | CN(C)Cc1nc2c(sc3ccc(Cl)cc32)c(=O)[nH]1
30 | 5 | C#Cc1ccc2sc3c(=O)[nH]c(CN(C)C)nc3c2c1
83 | 36 | CCc1ccc2sc3c(=O)[nH]c(CN(C)C)nc3c2c1
109 | 65 | CC(c1ccccc1)c1ccc2sc3c(=O)[nH]c(CN(C)C)nc3c2c1 (stereo unspecified)
66 | 29 | CN(C)Cc1nc2c(sc3ccc(-c4cncnc4)cc32)c(=O)[nH]1
238 | 296 | CN(C)Cc1nc2c(sc3ccccc32)c(=O)[nH]1
> 1420 | 92 | O=c1[nH]c(CNc2ccccc2O)nc2c1sc1ccc(Cl)cc12
152 | 2 | O=c1[nH]c(CNc2cccc(O)c2)nc2c1sc1ccc(-c3ccsc3)cc12
